Data: US7258861B2, “TNF-derived peptides for use in treating oedema” (Innogenetics N.V., priority 2001, dated 2007)
Values joined by “and” are separate entries in the source; they are usually repeats but may differ in a detail not shown here. Equal values may be shown once. Positions of bridges follow the written chain, without caps; N, C: chain ends. No end group written: not given here.

Columns and labels:
isolated rat lungs [1] = test: Isolated blood perfused flooded rat lung (weight, lung mechanics, PV curves, histology)
Description: (§1) Rats. For the ex vivo experiments, 31 Sprague-Dawley rats (300 to 350 g) were tracheotomized and mechanically ventilated (40% oxygen in air) under isoflurane anesthesia. The experimental protocol was reviewed and approved by the Ethics Committee for Animal Research and by the Veterinary Office of our institution. The femoral vessels were cannulated for blood sampling, fluid replacement, and continuous arterial blood pressure monitoring. Following anticoagulation (1.5 IU/g i.v. heparin), 20 ml of blood were withdrawn and replaced by an equal volume of dextran-40 (Macrodex 10% in normosaline) to serve as priming volume for the isolated perfusion circuit. The heart-lung block was prepared as described by Ma et al., 2000, weighed and assigned to one of four groups. […] The lungs were suspended, mechanically ventilated, and perfused at constant pressure with autologous blood as described by Ma et al., 2000.
(§2) An inspiratory and expiratory quasi-static pressure-volume (PV) curve was performed at the end of the 2-hour reperfusion period by inflating and then deflating the lungs at a constant rate (0.3 ml/sec) using an automated infusion pump. A sigh was applied in all groups every 15 minutes to minimize atelectasis formation. The blood pH was maintained between 7.3 and 7.5 and, if necessary, corrected with sodium bicarbonate 8.4% or a change of the inspired CO2 as required by the blood gas analysis. Every 30 minutes, a blood sample was collected for blood gas analysis as well as for hematocrit and electrolyte concentration.
(§3) Inclusion criteria. Immediately following the start of reperfusion, the preparation had to fulfill three technical inclusion criteria: • 1) left atrial pressure (LAP) 5-10 mmHg; • 2) peak airway pressure (AWP) <15 cmH2O; and • 3) pulmonary blood flow (PBF) >10 ml/min. […] The included lungs were then flooded with gentle intratracheal instillation of 2 ml normal saline and the recorded variables measured for 2 subsequent hours.
(§4) Histological analysis. Random lung samples were fixed for light and electron microscopy and analyzed by pathologists blinded to the lung's protocol group assignment.

isolated rat lungs [2] = test system: isolated rat lungs
Description: as §1, §2, §3, §4

[3] = test system: ex vivo instilled rat lung; test: Ex vivo rat flooded lung, model of hydrostatic edema
Description: In this model edema is induced by instillating 2 ml of 0.9% NaCl solution intratracheally. Alternatively, edema formation can be modulated by varying the height of the venous outflow and the perfusion buffer containing reservoir, or alternatively by varying the time the lung is exposed to the elevated pressure. […] The clearance of alveolar fluid from the lung is calculated by means of measuring the concentration of HSA, which is added to the instillate over time. Alternatively, the over time weight loss as a measure of edema resorption (high weight loss is high liquid clearance), of the artificially instilled lung can be measured. The lung tidal volume, compliance and weight are monitored continuously during the experiment. At the end of the experiment bronchoalveolar fluid and supernatant of lung homogenate is taken for measurement of inflammatory mediators.
The lungs of female Wistar rats (weight 200–250 g; Harlan-Winkelmann, Borchen, Germany) are prepared after terminal i.p. anesthesia by 160 mg/kg pentobarbitural —Na (Merial Ltd, Halbermoos, Germany) and perfused as described by Uhlig and Wolin (1994), and by Uhlig and von Bethmann (1997). All equipment is obtained from Hugo Sachs Electronics (March-Hugstetten, Germany). […] As perfusion medium, a Krebs-Henseleit buffer (38° C.) containing 2% bovine serum albumin (Fraction V, Scrva. Heidelberg, Germany), 0.1% glucose (Riedel-de-Haën Inc., Seelze, Germany), and 0.3% HEPES (ICN Biomedicals Inc., Ohio, USA) is used. The total amount of recirculating buffer is 100 ml. The lungs are suspended by the trachea and ventilated by negative pressure ventilation (inspiratory pressure: −7 cm H2O, expiratory pressure: −2 cm H2O) with 80 breaths per minute resulting in a tidal volume of approximately 2 ml. Every 5 minutes, a deep inspiratory breath (−20 cm H2O) is performed. Artificial thorax chamber pressure is measured with a differential pressure transducer (Validyne DP 45-14), and an air flow velocity with a pneumotachograh tube (Fleisch Type 0000) connected to a differential pressure transducer (Validyne DP 45-15). The perfusate flow (Narcomatic RT-500) and the arterial and venous pressure (Statham P23BB) are continuously monitored. The pH of the perfusate before entering the lung is kept at 7.25 to 7.35 by automatic bubbling of the buffer with CO2 as soon as the pH exceeds this range. A weight transducer is integrated into the chamber lid which allows the continuous assessment of lung weight. Data are recorded on a Pentium II computer using the Mathlab Sofware package (Mathworks, Inc., Nattick Mass., USA). For lung mechanics, the data are analyzed by applying the following formula: P=1/C*VT+RLdV/dT
Where P is chamber pressure, C pulmonary compliance, VT tidal volume, and RL airway resistance. All lung physiology parameters were normalized to time point 0, i.e. after the end of the preconditioning perfusion of 40 minutes.

[4] = test system: left lung of Fischer (F344) rats; test: Rat model of lung reperfusion injury (warm ischemia and reperfusion); assay type: in vivo
Description: In a modification of the model of Ohno et al. (1993) male Fischer (F344) rats (200–250 g) undergo clamping of the left pulmonary artery, pulmonary vein and main bronchus for 36 minutes of warm ischemia. After reperfusion of the left lung, the right lung is occluded to assess the function of the left lung for 90 minutes. The peptide is given at 3 minutes after reperfusion by either instillation or intravenous injection via the subclavian vein.
• 1. Anaesthesia of the rat in a glass chamber, 4% Halothane and Oxygen 4/min. • 2. Intubation of the rat with a 1.8 mm catheter, • 3. Shaving the fur on the abdomen and left side of the animal. • 4. Ventilation via the tracheal tube 100/min, 2.5 ml 20% oxygen, Harvard Rodent Ventilator (Harvard Apparatus, South Natick, Mass.), PEEP 5 mm H2O. • 5. A left thoracotomy is carried out in the in 4th intercostal space. • 6. Dissection of the left lung hilar region. • 7. Microvascular clips are placed around the left pulmonary artery (PA), Pulmonary vein (PV) and left main bronchus (B) to induce warm ischemia of the left lung. Small circulation is still ongoing through the right lung. This is the start of the Warm Ischemia Time (WIT). • 8. Anaesthaesia is maintained with 2% Halothane, 40% Oxygen. • 9. A provisory Z suture is made to temporary close the thoracotomy and a gaze sponge is put on the animal to decrease warmth loss. • 10. Near the end of the WIT, a thoracophrenolaparatomy in the midline with thorough electrocaterisation. (two peans on the sternum). • 11. Putting 2-0 Softsilk on the trachea around the intubation tube. • 12. Dissection of the right hilar elements. • 13. Taking away microvascular clips from the left hilar elements. End of WIT of the left lung after 36 minutes. • 14. Putting microvascular clips on right PA and B. Small circulation only through left lung. Start developing of left oedema time (LLOT). • 15. After 3 minutes of LLOT: instillation of the drug in 0.5 ml of 0.9% saline solution (Baxter) or injection of the drug in 0.25–0.3 ml of 0.9% saline through the subclavian vein. • 16. After 6, 30, 60 and 90 minutes of LLOT, puncture of the Aortic Arch (AA) with needle for blood gas analysis in Radiometer ABL 700 Serie, (Denmark). • 17. After each puncture the AA puncture hole is pressed with a cotton swab. • 18. Blood gas analysis is taken every time from AA (the heart rate should be over 60). • 19. After the last blood gas analysis (90 minutes), both lungs are flushed via the PA with 20 ml of 0.9% saline at a pressure of 20 cm H2O. […] The heart-lung block is excised for storage under formaline or in the freezer awaiting immunohistopathological analysis. Alternatively, the lung can be excised without flushing to assess wet to dry ratio's. Results (FIG. 7)

[5] = test system: transplanted left lung of rats; test: Single left lung transplantation in syngeneic rats; assay type: in vivo, rat; conditions: 24 hours after transplantation; donor lung pre-treated by intratracheal application, 500 μg/kg
Description: Female Wistar of Fischer rats or weighting 250 to 260 g undergo orthotopic single left lung transplantation after 20 hours cold ischemia using a cuff technique for the vessel anastomoses and a conventional running suture for the bronchial anastomosis.
Donor procedure: Animals are anesthetized by intraperitoneal administration of pentobarbital (50 mg/kg) and heparinized (500 I.U./kg). A tracheotomy is performed and the animals are ventilated trough a cannula with 100% O2 by a Harvard rodent ventilator (Harvard apparatus, South Natick, Mass.) at a tidal volume of 10 ml/kg. […] Both lungs are flushed with 20 cc of low-potassium dextran-solution (LPD) (Perfadex®, Kabi Pharmacia, Sweden) at a pressure of 20 cm H2O. The trachea is then tied in end-inspiration. After removal of the heart-lung block, 14 gauge cuffs are placed around the pulmonary artery and vein, and the vessels are inverted and tied onto the cuff. The lung is stored in LPD solution at 4° C. until implantation.
Recipient procedure: Transplantation was performed after 20 hours of cold ischemia (4° C.). The recipient is anesthetized by breathing Halothane in a glass chamber, intubated, and anesthesia is maintained with Halothane 2%. A left lateral thoracotomy is performed in the 4th intercostal space. The left hilium is dissected. […]

Row | Sequence | lung weight change over time after alveolar flooding (isolated rat lungs [1]; 2 hours reperfusion after 2 ml saline, TNF 5 μg, peptides 1 mg) | lung mechanics (peak AWP, Cdyn, Raw) after alveolar flooding (isolated rat lungs [1]; 2 hours reperfusion, TNF 5 μg, peptides 1 mg) | fraction of intratracheal instilled saline lost (isolated rat lungs [1]; at 2 hours, 1 mg) | inflation volume at lower inflection point (isolated rat lungs [1]; end of 2-hour reperfusion, 1 mg) [mL] | lower inflection point of inspiratory quasi-static PV curve (isolated rat lungs [1]; end of 2-hour reperfusion, TNF 5 μg, peptide 1 mg) [cmH2O] | leukocyte infiltration (lung histology) (isolated rat lungs [2]) | clearing alveolar fluid content ex vivo ([3]; after intratracheal instillation, summary in words) | activity in fluid clearance ([3]; measured 80 minutes after instillation, summary in words) | Weight loss of ex vivo instilled rat lung over 80 min ([3]; synthetic peptide 1000 μg/lung) | Weight loss of ex vivo instilled rat lung over 100 min ([3]; synthetic peptide 1000 μg/lung) | pCO2 levels ([4]; 500 μg/kg to 5 μg/kg, data not shown) | pO2 blood gas levels ([4]; 6 to 90 minutes of LLOT, cyclic hum Ltip 500 μg/kg to 5 μg/kg, hum mut Tip 500 μg/kg) | gain in pO2 blood gas ([4]; iv application) | pO2 [5]
1 | CGPKDTPEGAELKPWYC (disulfide 1-17; listed as Mus musculus) [cyclic mu Ltip] | progressively decreased in weight | progressive improvement in lung mechanics | approximately half | 3.4 ± 0.9 | 17.2±1.6 | did not show this increased leukocyte infiltration | – | – | – | – | – | – | – | –
2 | CGQRETPEGAEAKPWYC [cyclic hum Ltip] | – | – | – | – | – | – | capable of clearing alveolar fluid content | equally active | 658 mg and 585 mg and 663 mg and 648 mg and 575 mg and 931 mg and 900 mg and 918 mg | 1009 mg and 744 mg and 685 mg and 663 mg and 758 mg and 694 mg and 1004 mg and 1000 mg | lower pCO2 levels | significantly much better pO2 levels | significantly increased gain in pO2 blood gas | 395+/−95 mmHg
